Source: patent publication US20140093592A1, “[…] THE TREATMENT OF TREATMENT-[…] TREATMENT-RESISTANT DEPRESSION” (Janssen Pharmaceutica NV, priority 2012, published 2014)

What was measured:
[1] = tested on: patients with major depressive disorders; conditions: cited from earlier work
[2] = tested on: adult subjects with treatment-resistant depression (TRD); assay: Clinician-Assessed Dissociative Symptom Scale (CADSS) total score, same clinical study
[3] = tested on: adult subjects with treatment-resistant depression (TRD); assay: Brief Psychiatric Rating Scale (BPRS) total score, same clinical study; conditions: 0.40 mg/kg
[4] = 0.20 mg/kg, Day 1 (4 Hour), baseline Day 1
[5] = 0.20 mg/kg, Day 1 (40 Min), baseline Day 1
[6] = 0.20 mg/kg, Day 2, baseline Day 1
[7] = 0.20 mg/kg, Day 4 (4 Hour), baseline Day 4
[8] = 0.20 mg/kg, Day 4 (40 Min), baseline Day 4
[9] = 0.20 mg/kg, Day 5, baseline Day 4
[10] = 0.40 mg/kg, Day 1 (4 Hour), baseline Day 1
[11] = 0.40 mg/kg, Day 1 (40 Min), baseline Day 1
[12] = 0.40 mg/kg, Day 2, baseline Day 1
[13] = 0.40 mg/kg, Day 4 (4 Hour), baseline Day 4
[14] = 0.40 mg/kg, Day 4 (40 Min), baseline Day 4
[15] = 0.40 mg/kg, Day 5, baseline Day 4

In the case of `CNC1(c2ccccc2Cl)CCCCC1=O` (racemic) [ketamine], the “Onset of rapid antidepressant effect” value [1] is listed as “within two hours”.
With `CN[C@]1(c2ccccc2Cl)CCCCC1=O.Cl` [Esketamine, (S)-2-(2-chlorophenyl)-2-(methylamino)cyclohexanone hydrochloride] the “CADSS total score, Mean (SD)” value ([2]; 0.20 mg/kg, Day 1 (4 Hour)) was 0.00 (0.000), the “CADSS total score, Median” value ([2]; 0.20 mg/kg, Day 1 (4 Hour)) was 0.00 and the “CADSS total score change from baseline, Mean (SD)” value (“CADSS total score change … (SD)” below) [2, 4] was 0.00 (0.000). The “CADSS total score change from baseline, Median” value [2, 4] was 0.00, the “CADSS total score, Mean (SD)” value ([2]; 0.20 mg/kg, Day 1 (40 Min)) was 15.56 (24.653) and the “CADSS total score, Median” value ([2]; 0.20 mg/kg, Day 1 (40 Min)) was 4.00. For the same compound, the “CADSS total score change … (SD)” value [2, 5] was 15.56 (24.653), the “CADSS total score change from baseline, Median” value [2, 5] was 4.00 and the “CADSS total score, Mean (SD)” value ([2]; 0.20 mg/kg, Day 1 (Predose)) was 0.00 (0.000). The “CADSS total score, Median” value ([2]; 0.20 mg/kg, Day 1 (Predose)) was 0.00, the “CADSS total score, Mean (SD)” value ([2]; 0.20 mg/kg, Day 2) was 0.22 (0.667) and the “CADSS total score, Median” value ([2]; 0.20 mg/kg, Day 2) was 0.00. The “CADSS total score change … (SD)” value [2, 6] was 0.22 (0.667), the “CADSS total score change from baseline, Median” value [2, 6] was 0.00 and the “CADSS total score, Mean (SD)” value ([2]; 0.20 mg/kg, Day 4 (4 Hour)) was 0.22 (0.667). The “CADSS total score, Median” value ([2]; 0.20 mg/kg, Day 4 (4 Hour)) was 0.00, the “CADSS total score change … (SD)” value [2, 7] was 0.22 (0.667) and the “CADSS total score change from baseline, Median” value [2, 7] was 0.00. The “CADSS total score, Mean (SD)” value ([2]; 0.20 mg/kg, Day 4 (40 Min)) was 6.38 (7.963), the “CADSS total score, Median” value ([2]; 0.20 mg/kg, Day 4 (40 Min)) was 4.00 and the “CADSS total score change … (SD)” value [2, 8] was 6.38 (7.963). For the same compound, the “CADSS total score change from baseline, Median” value [2, 8] was 4.00, the “CADSS total score, Mean (SD)” value ([2]; 0.20 mg/kg, Day 4 (Predose)) was 0.00 (0.000) and the “CADSS total score, Median” value ([2]; 0.20 mg/kg, Day 4 (Predose)) was 0.00. For the same compound, the “CADSS total score, Mean (SD)” value ([2]; 0.20 mg/kg, Day 5) was 0.11 (0.333), the “CADSS total score, Median” value ([2]; 0.20 mg/kg, Day 5) was 0.00 and the “CADSS total score change … (SD)” value [2, 9] was 0.11 (0.333). For the same compound, the “CADSS total score change from baseline, Median” value [2, 9] was 0.00, the “CADSS total score, Mean (SD)” value ([2]; 0.40 mg/kg, Day 1 (4 Hour)) was 0.36 (1.206) and the “CADSS total score, Median” value ([2]; 0.40 mg/kg, Day 1 (4 Hour)) was 0.00. For the same compound, the “CADSS total score change … (SD)” value [2, 10] was −0.55 (1.036), the “CADSS total score change from baseline, Median” value [2, 10] was 0.00 and the “CADSS total score, Mean (SD)” value ([2]; 0.40 mg/kg, Day 1 (40 Min)) was 22.00 (9.192). The “CADSS total score, Median” value ([2]; 0.40 mg/kg, Day 1 (40 Min)) was 23.00, the “CADSS total score change … (SD)” value [2, 11] was 21.56 (9.645) and the “CADSS total score change from baseline, Median” value [2, 11] was 23.00. For the same compound, the “CADSS total score, Mean (SD)” value ([2]; 0.40 mg/kg, Day 1 (Predose)) was 0.91 (1.921), the “CADSS total score, Median” value ([2]; 0.40 mg/kg, Day 1 (Predose)) was 0.00 and the “CADSS total score, Mean (SD)” value ([2]; 0.40 mg/kg, Day 2) was 0.73 (1.849). The “CADSS total score, Median” value ([2]; 0.40 mg/kg, Day 2) was 0.00, the “CADSS total score change … (SD)” value [2, 12] was −0.18 (1.168) and the “CADSS total score change from baseline, Median” value [2, 12] was 0.00. The “CADSS total score, Mean (SD)” value ([2]; 0.40 mg/kg, Day 4 (4 Hour)) was 3.21 (8.929), the “CADSS total score, Median” value ([2]; 0.40 mg/kg, Day 4 (4 Hour)) was 0.00 and the “CADSS total score change … (SD)” value [2, 13] was 3.16 (8.808). For the same compound, the “CADSS total score change from baseline, Median” value [2, 13] was 0.00, the “CADSS total score, Mean (SD)” value ([2]; 0.40 mg/kg, Day 4 (40 Min)) was 15.67 (13.932) and the “CADSS total score, Median” value ([2]; 0.40 mg/kg, Day 4 (40 Min)) was 10.00. For the same compound, the “CADSS total score change … (SD)” value [2, 14] was 15.67 (13.932), the “CADSS total score change from baseline, Median” value [2, 14] was 10.00 and the “CADSS total score, Mean (SD)” value ([2]; 0.40 mg/kg, Day 4 (Predose)) was 0.19 (0.680). The “CADSS total score, Median” value ([2]; 0.40 mg/kg, Day 4 (Predose)) was 0.00, the “CADSS total score, Mean (SD)” value ([2]; 0.40 mg/kg, Day 5) was 0.25 (0.550) and the “CADSS total score, Median” value ([2]; 0.40 mg/kg, Day 5) was 0.00. For the same compound, the “CADSS total score change … (SD)” value [2, 15] was 0.05 (0.759), the “CADSS total score change from baseline, Median” value [2, 15] was 0.00 and the “Time at which maximum mean overall BPRS and CADSS scores (CNS side effects) were observed” value ([2]; corresponding to the end of the infusion) was 40 min. For the same compound, the “Time point at which BPRS and CADSS scores returned back to baseline values” ([2]; postdose, after the start of infusion) was 4 h, the “BPRS total score, Mean (SE)” value ([3]; Day 1 (4 Hour)) was 0.00 (0.000) and the “BPRS total score, Mean (SE)” value ([3]; Day 1 (15 Min.)) was 1.91 (0.625). The “BPRS total score, Mean (SE)” value ([3]; Day 1 (30 Min.)) was 3.10 (0.960), the “BPRS total score, Mean (SE)” value ([3]; Day 1 (40 Min.)) was 4.33 (1.323) and the “BPRS total score, Mean (SE)” value ([3]; Day 1 (Predose)) was 0.09 (0.091). For the same compound, the “BPRS total score, Mean (SE)” value ([3]; Day 2) was 0.00 (0.000), the “BPRS total score, Mean (SE)” value ([3]; Day 4 (2 Hour)) was 0.43 (0.335) and the “BPRS total score, Mean (SE)” value ([3]; Day 4 (4 Hour)) was 0.29 (0.286). The “BPRS total score, Mean (SE)” value ([3]; Day 4 (15 Min.)) was 1.90 (0.668), the “BPRS total score, Mean (SE)” value ([3]; Day 4 (30 Min.)) was 3.32 (1.192) and the “BPRS total score, Mean (SE)” value ([3]; Day 4 (40 Min.)) was 3.16 (1.248). The “BPRS total score, Mean (SE)” value ([3]; Day 4 (Predose)) was 0.05 (0.048) and the “BPRS total score, Mean (SE)” value ([3]; Day 5) was 0.00 (0.000).
